SMILES strings stand for the structures.

Data set [1] in a line: Kinetics of thermal decarboxylation in aqueous buffer solution without catalyst. In kind it is physicochemical. As to conditions: for k (rate coefficient of decarboxylation) / n (order of reaction of decarboxylation): buffer solution, no catalyst. The source says:
(§1) In this experiment, the kinetics of the thermal decarboxylation of step b) of the method according to the invention was studied. […] In this case it was possible to decarboxylate anthranilate ion to aniline (ANL). AA, or o-aminobenzoate, respectively was either provided biologically by a recombinant microbial host as described in Example 1, or it was provided chemically, e.g. it was commercially obtained, e.g. from Sigma Aldrich, catalog no. A89855.
(§2) A buffer solution containing (NH4)2SO4 (20 g/L), Na2HPO4 (1 g/L) and KH2PO4 (1 g/L) in distilled water was prepared. Then AA 10 wt % was suspended in this solution. NH4OH solution (28-30% NH3) was added dropwise into this suspension until a clear yellow solution was formed. The pH of this ammonium anthranilate (NH4AA) solution was around 7. The ammonium anthranilate (3 wt %) solution was also prepared using this method.
80 mL of each of the above solutions was transferred into an autoclave 160 mL and heated to 160° C. or 180° C. and samples were taken at different time intervals to analyse the rate of aniline (ANL) formation.
Decarboxylation of AA 0.5 wt % and NH4AA 3 wt % in aqueous buffer solution was performed at 160° C. without using any catalyst. […] The kinetic model was established using the general reaction rate formula as below and considering the experimental data to calculate the optimized k and n parameters which are the rate coefficient and the order of reaction, respectively.
The kinetics of NH4AA 10 wt % decarboxylation at 160° C. and 180° C. was also studied using experimental data and a simulating model.

Data set [2] is described as follows: Solubility of ammonium anthranilate in buffer solution. In kind it is physicochemical. The note with it: AA buffer solution with NH4OH added.
From the text: as §1, §2

The mark [3] stands for this setting: reaction temperature 160 °C, listed as NH4AA 10% in buffer solution.

In the case of `Nc1ccccc1C(=O)O` [AA 0.5% in buffer solution, anthranilic acid], the “rate coefficient (k) relative to that of NH4AA 3 wt %” value in data set [1] (160 °C, decarboxylation in water) was found to be 6.8 times. For the same compound, in data set [1] (reaction temperature 160 °C), the “k (rate coefficient of decarboxylation)” value worked out at 0.0519 h⁻¹ and the “n (order of reaction of decarboxylation)” value is 0.9207.
In the case of `N.Nc1ccccc1C(=O)O` [NH4AA 3% in buffer solution, ammonium anthranilate], in data set [1] (NH4AA 10 wt %), the “rate coefficient at 180 °C relative to that at 160 °C” value is on record as 36 times. For the same compound, the “k (rate coefficient of decarboxylation)” value was 0.00755 h⁻¹ in data set [1] (reaction temperature 160 °C), 0.000713 h⁻¹ in data set [1] (setting [3]) and 0.026 h⁻¹ in data set [1] (reaction temperature 180 °C). In addition, the “n (order of reaction of decarboxylation)” value in data set [1] (reaction temperature 160 °C) is 0.8706; in data set [1] (setting [3]), 1.2758; in data set [1] (reaction temperature 180 °C), 0.9793.
For `N.Nc1ccccc1C(=O)O` [ammonium anthranilate], the solubility entry in data set [2] is recorded as “up to 10%”.

These data come from patent US10173969B2, “Production of aniline via anthranilate” (Covestro Deutschland AG, priority 2014, dated 2019).
